This assay deals with Maltase-glucoamylase (Homo sapiens, UniProt O43451). Kind of assay: Inhibition of alpha-glucosidase.

Here are results for twelve compounds from BindingDB's records for doi:10.1016/j.bmc.2007.03.063 (Zhengzhou University, 2007).

Sequence of Maltase-glucoamylase (O43451 whole entry): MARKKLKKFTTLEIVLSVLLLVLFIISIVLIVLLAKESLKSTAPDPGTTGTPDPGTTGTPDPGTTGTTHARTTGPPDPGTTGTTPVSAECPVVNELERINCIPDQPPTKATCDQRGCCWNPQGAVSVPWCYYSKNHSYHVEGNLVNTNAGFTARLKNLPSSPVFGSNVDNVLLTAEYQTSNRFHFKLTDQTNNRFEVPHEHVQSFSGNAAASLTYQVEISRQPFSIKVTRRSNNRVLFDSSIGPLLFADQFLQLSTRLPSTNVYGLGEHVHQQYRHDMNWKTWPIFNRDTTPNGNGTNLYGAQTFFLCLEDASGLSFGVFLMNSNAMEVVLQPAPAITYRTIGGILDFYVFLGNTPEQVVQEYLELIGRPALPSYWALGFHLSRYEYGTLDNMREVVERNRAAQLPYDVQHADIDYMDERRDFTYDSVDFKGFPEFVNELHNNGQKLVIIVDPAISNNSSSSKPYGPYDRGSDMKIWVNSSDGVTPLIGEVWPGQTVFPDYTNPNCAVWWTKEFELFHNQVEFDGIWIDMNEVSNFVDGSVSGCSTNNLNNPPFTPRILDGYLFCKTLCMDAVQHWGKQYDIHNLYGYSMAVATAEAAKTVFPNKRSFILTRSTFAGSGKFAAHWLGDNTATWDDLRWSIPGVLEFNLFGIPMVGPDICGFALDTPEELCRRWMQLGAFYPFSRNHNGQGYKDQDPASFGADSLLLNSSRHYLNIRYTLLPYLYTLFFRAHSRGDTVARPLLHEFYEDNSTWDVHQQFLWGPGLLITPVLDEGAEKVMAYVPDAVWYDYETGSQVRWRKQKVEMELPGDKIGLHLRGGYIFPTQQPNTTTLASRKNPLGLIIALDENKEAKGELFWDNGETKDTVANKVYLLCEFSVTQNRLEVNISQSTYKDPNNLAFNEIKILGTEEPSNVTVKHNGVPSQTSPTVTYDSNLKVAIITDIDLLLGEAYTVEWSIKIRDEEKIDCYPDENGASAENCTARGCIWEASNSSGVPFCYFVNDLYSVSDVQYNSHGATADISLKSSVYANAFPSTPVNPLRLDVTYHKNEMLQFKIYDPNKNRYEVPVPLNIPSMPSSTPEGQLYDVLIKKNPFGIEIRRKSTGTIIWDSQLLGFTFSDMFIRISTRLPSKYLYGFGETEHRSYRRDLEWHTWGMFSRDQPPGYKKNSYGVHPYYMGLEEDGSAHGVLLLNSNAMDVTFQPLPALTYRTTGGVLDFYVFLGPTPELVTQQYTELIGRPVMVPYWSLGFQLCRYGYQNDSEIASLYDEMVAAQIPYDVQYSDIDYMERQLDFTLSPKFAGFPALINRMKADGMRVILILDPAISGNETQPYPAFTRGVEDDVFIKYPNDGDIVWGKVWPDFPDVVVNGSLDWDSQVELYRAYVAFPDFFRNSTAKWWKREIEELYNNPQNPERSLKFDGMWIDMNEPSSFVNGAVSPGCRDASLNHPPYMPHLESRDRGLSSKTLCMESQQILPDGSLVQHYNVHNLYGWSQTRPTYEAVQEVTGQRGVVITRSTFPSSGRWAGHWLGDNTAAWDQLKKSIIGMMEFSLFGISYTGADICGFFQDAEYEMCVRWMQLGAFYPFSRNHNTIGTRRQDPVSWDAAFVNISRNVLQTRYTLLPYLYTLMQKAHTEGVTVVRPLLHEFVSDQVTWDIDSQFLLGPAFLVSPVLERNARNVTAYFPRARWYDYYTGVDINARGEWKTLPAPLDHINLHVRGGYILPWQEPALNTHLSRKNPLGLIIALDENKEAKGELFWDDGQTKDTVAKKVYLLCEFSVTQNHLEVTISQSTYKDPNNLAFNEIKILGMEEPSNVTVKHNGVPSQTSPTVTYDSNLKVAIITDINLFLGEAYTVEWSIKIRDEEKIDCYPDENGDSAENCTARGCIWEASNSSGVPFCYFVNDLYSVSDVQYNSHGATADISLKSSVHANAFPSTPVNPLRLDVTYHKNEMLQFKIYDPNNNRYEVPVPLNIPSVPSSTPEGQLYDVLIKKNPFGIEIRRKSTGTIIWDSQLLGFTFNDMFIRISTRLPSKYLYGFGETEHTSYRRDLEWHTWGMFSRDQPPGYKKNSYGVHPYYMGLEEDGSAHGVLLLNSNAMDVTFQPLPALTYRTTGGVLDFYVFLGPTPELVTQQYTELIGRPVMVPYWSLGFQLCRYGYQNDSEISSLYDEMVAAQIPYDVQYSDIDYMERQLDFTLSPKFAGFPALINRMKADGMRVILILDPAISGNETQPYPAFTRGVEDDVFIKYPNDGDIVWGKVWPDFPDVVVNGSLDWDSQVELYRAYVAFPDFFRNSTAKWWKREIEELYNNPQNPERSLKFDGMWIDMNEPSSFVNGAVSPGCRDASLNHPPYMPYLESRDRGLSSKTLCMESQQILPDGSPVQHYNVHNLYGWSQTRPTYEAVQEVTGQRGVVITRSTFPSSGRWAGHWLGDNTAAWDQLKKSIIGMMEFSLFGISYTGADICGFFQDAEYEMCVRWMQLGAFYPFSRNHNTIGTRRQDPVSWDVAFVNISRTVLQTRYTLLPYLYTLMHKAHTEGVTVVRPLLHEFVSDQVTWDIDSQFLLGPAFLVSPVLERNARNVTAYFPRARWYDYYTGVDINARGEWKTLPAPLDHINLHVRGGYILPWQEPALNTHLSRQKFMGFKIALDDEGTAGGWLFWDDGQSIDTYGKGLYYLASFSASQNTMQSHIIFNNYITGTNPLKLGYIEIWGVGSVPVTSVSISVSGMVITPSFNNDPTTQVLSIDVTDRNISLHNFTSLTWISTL

As to `C=C1CC[C@@H]2[C@](C)(COC(=O)c3cccnc3)[C@H](OC(=O)c3cccnc3)CC[C@@]2(C)[C@@H]1/C=C/C1=CC(=C\C(C)=C\CCC/C=C/C)/OC1=O` [14-deoxy-11,12-didehydro-3,19-dinicotinate-15-(2,8-dimethanyl-2,7-octanedieneylidene)-andrographolide], the IC50 (usually the concentration needed to halve the response being measured) was 28 µM.
As for `C=C1CC[C@@H]2[C@](C)(COC(=O)c3cccnc3)[C@H](OC(=O)c3cccnc3)CC[C@@]2(C)[C@@H]1/C=C/C1=CC(=C/c2ccco2)/OC1=O` [14-deoxy-11,12-didehydro-3,19-dinicotinate-15-(2-furanmethanylidene)-andrographolide], the figure is 36 µM.
Compound `C=C1CC[C@@H]2[C@](C)(COC(=O)c3cccnc3)[C@H](OC(=O)c3cccnc3)CC[C@@]2(C)[C@@H]1/C=C/C1=CC(=C\c2ccc(N(C)C)cc2)/OC1=O` [14-deoxy-11,12-didehydro-3,19-dinicotinate-15-(p(-dimethylamino)benzylidene)-andrographolide] registered an IC50 of 25 µM. The IC50 values of the last two compounds are within 1.5-fold of each other.
With `C=C1CC[C@@H]2[C@](C)(COC(=O)c3cccnc3)[C@H](OC(=O)c3cccnc3)CC[C@@]2(C)[C@@H]1/C=C/C1=CC(=C\c2ccc(OC)cc2)/OC1=O` [14-deoxy-11,12-didehydro-3,19-dinicotinate-15-p-methoxylbenzylidene andrographolide], the IC50 worked out at 11 µM.
The compound `C=C1CC[C@@H]2[C@](C)(CO)[C@H](O)CC[C@@]2(C)[C@@H]1/C=C/C1=CC(=C/c2ccco2)/OC1=O` [14-deoxy-11,12-didehydro-15-(-2-furanmethanylidene)-andrographolide] yielded an IC50 of 100 µM.
As for `C=C1CC[C@@H]2[C@](C)(CO)[C@H](O)CC[C@@]2(C)[C@@H]1/C=C/C1=CC(=C/c2cc(OC)c(OC)cc2OC)/OC1=O` [14-deoxy-11,12-didehydro-15-trimethoxylbenzylideneandrographolide], the figure is 84 µM; as for `C=C1CC[C@@H]2[C@](C)(CO)[C@H](O)CC[C@@]2(C)[C@@H]1/C=C/C1=CC(=C/c2ccc(N(C)C)cc2)/OC1=O` [14-deoxy-15-(p-(dimethanylamino)-benzylidene)-11,12-didehydroandrographolide], 70 µM.
In turn, `C=C1CC[C@@H]2[C@](C)(CO)[C@H](O)CC[C@@]2(C)[C@@H]1/C=C/C1=CC(=C/c2ccc3c(c2)OCO3)/OC1=O` [15-(benzo[1,3]dioxole-5-methanylidene)-14-deoxy-11,12-didehydroandrographolide] returned an IC50 of 82 µM. The IC50 values of the last two compounds are within 1.5-fold of each other.
As for `C=C1CC[C@@H]2[C@](C)(COC(=O)c3cccnc3)[C@H](OC(=O)c3cccnc3)CC[C@@]2(C)[C@@H]1/C=C/C1=CC(=C\c2cccc(Br)c2)/OC1=O` [15-(m-bromoacylbenzylidene)-14-deoxy-11,12-didehydro-3,19-dinicotinateandrographolide], the figure is 14 µM.
In turn, `C=C1CC[C@@H]2[C@](C)(COC(=O)c3cccnc3)[C@H](OC(=O)c3cccnc3)CC[C@@]2(C)[C@@H]1/C=C/C1=CC(=C\c2ccc(Cl)cc2)/OC1=O` [15-(p-chlorinebenzylidene)-14-deoxy-11,12-didehydro-3,19-dinicotinateandrographolide] returned an IC50 of 6 µM. Against the preceding compound, the IC50 is about 2.3-fold lower.
`C=C1CC[C@@H]2[C@](C)(COC(=O)c3cccnc3)[C@H](OC(=O)c3cccnc3)CC[C@@]2(C)[C@@H]1/C=C/C1=CC(=C\c2ccccc2)/OC1=O` [15-benzylidene14-deoxy-11,12-didehydro-3,19-dinicotinateandrographolide] registered an IC50 of 16 µM.
`C=C1CC[C@@H]2[C@](C)(CO)[C@H](O)CC[C@@]2(C)[C@@H]1/C=C/C1=CC(=C/c2ccccc2)/OC1=O` [15-benzylidene-14-deoxy-11,12-didehydroandrographolide] came in with an IC50 of 58 µM. Compared with the last compound, the IC50 is about 3.6-fold higher.
